Data as given in paper PMC9395446, “First-in-human phase 1/1b study to evaluate sitravatinib in patients with advanced solid tumors” (Investigational New Drugs, 2022).
Several values for one entry are separate records, joined by “and”; a condition that tells them apart may be missing. Identical values can stand only once.

Tested on: advanced solid tumors
Assay: Clinical activity by RECIST v1.1 (ORR, DoR, PFS, OS), phase 1b
Type: in vivo, human
Experimental: Clinical activity was assessed by objective response rate (ORR) according to Response Evaluation Criteria In Solid Tumors (RECIST) v1.1. Additional endpoints included duration of response (DoR), progression-free survival (PFS) and overall survival (OS) in phase 1b cohorts of patients based on diagnosis and tumor molecular alterations. An exploratory post-hoc analysis of patients with non-squamous NSCLC who experienced disease progression on prior checkpoint inhibitor (CPI) therapy was performed.
Disease status was evaluated according to RECIST v1.1 at baseline and every three cycles in phase 1, and every two cycles (6-week intervals) in phase 1b. Assessments were performed until objective disease progression was documented or until subsequent anti-cancer therapy started (see Supplementary Information [Sect. 1.3] for details).
DoR, PFS and OS were reported descriptively and summarized using the Kaplan–Meier method. DoR was defined as the time from first documentation of objective tumor response (complete response [CR] or partial response [PR]) until first documentation of disease progression per RECIST 1.1 or death (any cause). PFS was defined as the time from first dose of study treatment until progressive disease as defined by RECIST 1.1 or death (any cause). OS was defined as the time from first dose of study treatment until death (any cause).

[1] = NSCLC with molecular alterations (n = 53)
[2] = non-squamous NSCLC with prior CPI experience (n = 24)
[3] = phase 1b Chr4q12 amplification (n=16)
[4] = phase 1b NSCLC KIF5B-RET (n=13)
[5] = phase 1b NSCLC RET rearrangement (n=23)
[6] = phase 1b all molecular alterations (n=113)
[7] = phase 1b mITT overall (n = 161)
[8] = phase 1b overall RET rearrangement (n=31)

Compound: COCCNCc1ccc(-c2cc3nccc(Oc4ccc(NC(=O)C5(C(=O)Nc6ccc(F)cc6)CC5)cc4F)c3s2)nc1 [sitravatinib, Sitravatinib]
- ORR (NSCLC with a molecular alteration of interest): 13.2%
- CR [1]: 0 n (%)
- DoR 6-month KM estimate (95% CI) [1]: 28.6 (4.1, 61.2) %
- DoR median (95% CI) [1]: 3.0 (1.8, 10.2) months
- NE (non-evaluable) [1]: 8 (15.1) n (%)
- ORR [1]: 7 (13.2) n (%)
- OS 12-month KM estimate (95% CI) [1]: 47.6 (32.4, 61.3) %
- OS median (95% CI) [1]: 11.6 (6.6, 18.2) months
- PD (progressive disease) [1]: 8 (15.1) n (%)
- PFS 6-month KM estimate (95% CI) [1]: 32.2 (19.2, 46.0) %
- PFS median (95% CI) [1]: 4.3 (2.9, 5.7) months
- PR [1]: 7 (13.2) n (%)
- ORR (non-squamous NSCLC with prior CPI experience (exploratory)): 4.2%
- CR [2]: 0 n (%)
- DoR 6-month KM estimate (95% CI) [2]: 100 (100, 100) %
- DoR median (95% CI) [2]: 10.2 (NE, NE) months
- NE (non-evaluable) [2]: 6 (25.0) n (%)
- ORR [2]: 1 (4.2) n (%)
- OS 12-month KM estimate (95% CI) [2]: 36.8 (16.5, 57.5) %
- OS median (95% CI) [2]: 5.2 (2.4, 33.8) months
- PD (progressive disease) [2]: 5 (20.8) n (%)
- PFS 6-month KM estimate (95% CI) [2]: 24.8 (7.8, 46.6) %
- PFS median (95% CI) [2]: 2.9 (1.5, 4.9) months
- PR [2]: 1 (4.2) n (%)
- ORR (overall phase 1b mITT population): 11.8%
- CR (phase 1b AXL alteration (n=7)): 0 n (%)
- NE (phase 1b AXL alteration (n=7)): 0 n (%)
- ORR (phase 1b AXL alteration (n=7)): 1 (14.3) n (%)
- OS 12-month KM estimate (95% CI) (phase 1b AXL alteration (n=7)): 26.8 (1.3, 67.0) %
- OS median (95% CI) (phase 1b AXL alteration (n=7)): 10.0 (2.2, NE) months
- PD (progressive disease) (phase 1b AXL alteration (n=7)): 2 (28.6) n (%)
- PFS 6-month KM estimate (95% CI) (phase 1b AXL alteration (n=7)): 71.4 (25.8, 92.0) %
- PFS median (95% CI) (phase 1b AXL alteration (n=7)): NR (1.2, NE)
- PR (phase 1b AXL alteration (n=7)): 1 (14.3) n (%)
- CR (phase 1b CBL alteration (n=31)): 0 n (%)
- DoR 6-month KM estimate (95% CI) (phase 1b CBL alteration (n=31)): 50.0 (0.6, 91.0) %
- DoR median (95% CI) (phase 1b CBL alteration (n=31)): NR (4.3, NE)
- NE (phase 1b CBL alteration (n=31)): 9 (29.0) n (%)
- ORR (phase 1b CBL alteration (n=31)): 2 (6.5) n (%)
- OS 12-month KM estimate (95% CI) (phase 1b CBL alteration (n=31)): 20.2 (7.4, 37.3) %
- OS median (95% CI) (phase 1b CBL alteration (n=31)): 5.0 (3.2, 9.9) months
- PD (progressive disease) (phase 1b CBL alteration (n=31)): 9 (29.0) n (%)
- PFS 6-month KM estimate (95% CI) (phase 1b CBL alteration (n=31)): 12.3 (3.1, 28.3) %
- PFS median (95% CI) (phase 1b CBL alteration (n=31)): 2.0 (1.3, 4.1) months
- PR (phase 1b CBL alteration (n=31)): 2 (6.5) n (%)
- CR (phase 1b CRPC (n=10)): 0 n (%)
- NE (phase 1b CRPC (n=10)): 3 (30.0) n (%)
- ORR (phase 1b CRPC (n=10)): 0 n (%)
- OS 12-month KM estimate (95% CI) (phase 1b CRPC (n=10)): 18.2 (0.8, 54.5) %
- OS median (95% CI) (phase 1b CRPC (n=10)): 10.1 (2.8, 23.2) months
- PD (progressive disease) (phase 1b CRPC (n=10)): 1 (10.0) n (%)
- PFS 6-month KM estimate (95% CI) (phase 1b CRPC (n=10)): 50.0 (11.1, 80.4) %
- PFS median (95% CI) (phase 1b CRPC (n=10)): 5.8 (2.1, NE) months
- PR (phase 1b CRPC (n=10)): 0 n (%)
- CR [3]: 0 n (%)
- NE [3]: 4 (25.0) n (%)
- ORR [3]: 0 n (%)
- OS 12-month KM estimate (95% CI) [3]: 35.2 (13.3, 58.2) %
- OS median (95% CI) [3]: 9.5 (3.6, 18.1) months
- PD (progressive disease) [3]: 3 (18.8) n (%)
- PFS 6-month KM estimate (95% CI) [3]: 23.8 (5.8, 48.5) %
- PFS median (95% CI) [3]: 2.7 (1.3, 4.4) months
- PR [3]: 0 n (%)
- CR (phase 1b MET alteration (n=17)): 0 n (%)
- DoR median (95% CI) (phase 1b MET alteration (n=17)): NR (3.0, NE)
- NE (phase 1b MET alteration (n=17)): 3 (17.6) n (%)
- ORR (phase 1b MET alteration (n=17)): 2 (11.8) n (%)
- OS 12-month KM estimate (95% CI) (phase 1b MET alteration (n=17)): 27.1 (8.4, 50.2) %
- OS median (95% CI) (phase 1b MET alteration (n=17)): 7.3 (3.5, 13.9) months
- PD (progressive disease) (phase 1b MET alteration (n=17)): 2 (11.8) n (%)
- PFS 6-month KM estimate (95% CI) (phase 1b MET alteration (n=17)): 16.4 (2.8, 40.0) %
- PFS median (95% CI) (phase 1b MET alteration (n=17)): 2.9 (1.9, 4.3) months
- PR (phase 1b MET alteration (n=17)): 2 (11.8) n (%)
- CR [4]: 0 n (%)
- DoR 6-month KM estimate (95% CI) [4]: 100.0 (100.0, 100.0) %
- DoR median (95% CI) [4]: 10.2 (NE, NE) months
- NE [4]: 3 (23.1) n (%)
- ORR [4]: 1 (7.7) n (%)
- OS 12-month KM estimate (95% CI) [4]: 79.5 (39.3, 94.5) %
- OS median (95% CI) [4]: 27.2 (10.9, 33.8) months
- PD (progressive disease) [4]: 3 (23.1) n (%)
- PFS 6-month KM estimate (95% CI) [4]: 36.4 (11.2, 62.7) %
- PFS median (95% CI) [4]: 5.7 (1.5, 13.5) months
- PR [4]: 1 (7.7) n (%)
- CR [5]: 0 n (%)
- DoR 6-month KM estimate (95% CI) [5]: 25.0 (0.9, 66.5) %
- DoR median (95% CI) [5]: 2.3 (1.8, 10.2) months
- NE [5]: 3 (13.0) n (%)
- ORR [5]: 4 (17.4) n (%)
- OS 12-month KM estimate (95% CI) [5]: 73.2 (46.6, 88.1) %
- OS median (95% CI) [5]: 27.2 (10.9, NE) months
- PD (progressive disease) [5]: 3 (13.0) n (%)
- PFS 6-month KM estimate (95% CI) [5]: 40.3 (19.5, 60.4) %
- PFS median (95% CI) [5]: 5.7 (3.0, 13.5) months
- PR [5]: 4 (17.4) n (%)
- CR (phase 1b RCC (n=38)): 0 n (%)
- DoR 6-month KM estimate (95% CI) (phase 1b RCC (n=38)): 100.0 (100.0, 100.0) %
- DoR median (95% CI) (phase 1b RCC (n=38)): 13.2 (6.8, NE) months
- NE (phase 1b RCC (n=38)): 3 (7.9) n (%)
- ORR (phase 1b RCC (n=38)): 8 (21.1) n (%)
- OS 12-month KM estimate (95% CI) (phase 1b RCC (n=38)): 60.1 (41.3, 74.6) %
- OS median (95% CI) (phase 1b RCC (n=38)): 29.3 (10.8, 33.4) months
- PD (progressive disease) (phase 1b RCC (n=38)): 4 (10.5) n (%)
- PFS 6-month KM estimate (95% CI) (phase 1b RCC (n=38)): 62.6 (43.5, 76.9) %
- PFS median (95% CI) (phase 1b RCC (n=38)): 9.5 (4.3, 11.7) months
- PR (phase 1b RCC (n=38)): 8 (21.1) n (%)
- CR [6]: 0 n (%)
- DoR 6-month KM estimate (95% CI) [6]: 53.0 (20.9, 77.3) %
- DoR median (95% CI) [6]: 7.0 (1.9, 15.2) months
- ORR [6]: 11 (9.7) n (%)
- OS 12-month KM estimate (95% CI) [6]: 36.1 (26.3, 45.9) %
- OS median (95% CI) [6]: 9.9 (7.1, 10.9) months
- PD (progressive disease) [6]: 23 (20.4) n (%)
- PFS 6-month KM estimate (95% CI) [6]: 28.5 (19.6, 38.0) %
- PFS median (95% CI) [6]: 3.6 (2.7, 4.4) months
- PR [6]: 11 (9.7) n (%)
- CR [7]: 0 n (%)
- DoR 6-month KM estimate (95% CI) [7]: 71.3% and 71.3 (44.0, 87.0) %
- DoR median (95% CI) [7]: 8.2 months and 8.2 (4.3, 16.6) months
- NE (non-evaluable) [7]: 26 (16.1) n (%)
- ORR [7]: 19 (11.8) n (%)
- OS 12-month KM estimate (95% CI) [7]: 41.3% and 41.3 (32.7, 49.6) %
- OS median (95% CI) [7]: 10.7 months and 10.7 (9.9, 11.9) months
- PD (progressive disease) [7]: 28 (17.4) n (%)
- PFS 6-month KM estimate (95% CI) [7]: 37.5% and 37.5 (29.2, 45.9) %
- PFS median (95% CI) [7]: 4.3 months and 4.3 (3.1, 5.6) months
- PR [7]: 19 (11.8) n (%)
- CR [8]: 0 n (%)
- DoR 6-month KM estimate (95% CI) [8]: 40.0 (5.2, 75.3) %
- DoR median (95% CI) [8]: 2.8 (1.8, 10.2) months
- NE [8]: 3 (9.7) n (%)
- ORR [8]: 5 (16.1) n (%)
- OS 12-month KM estimate (95% CI) [8]: 66.5 (43.3, 82.0) %
- OS median (95% CI) [8]: 18.2 (10.9, 33.8) months
- PD (progressive disease) [8]: 5 (16.1) n (%)
- PFS 6-month KM estimate (95% CI) [8]: 39.5 (21.8, 56.7) %
- PFS median (95% CI) [8]: 5.3 (3.0, 6.7) months
- PR [8]: 5 (16.1) n (%)
